Test results taken from patent US8637518B2, “Pyridazinone derivatives” (MERCK PATENT GmbH, priority 2008, dated 2014).

System: not given
Assay: not given
Compound `CC(C)Oc1cnc(-c2cccc(Cn3nc(-c4cccc(C#N)c4)ccc3=O)c2)nc1` [Compound D2, 3-{1-[3-(5-Isopropoxypyrimidin-2-yl)benzyl]-6-oxo-1,6-dihydropyridazin-3-yl}benzonitrile] has a melting point of 200 to 201 °C. `COc1cnc(-c2cccc(Cn3nc(-c4cccc(C#N)c4)ccc3=O)c2)nc1` [Compound D3, 3-{1-[3-(5-Methoxypyrimidin-2-yl)benzyl]-6-oxo-1,6-dihydropyridazin-3-yl}-benzonitrile] gave a melting point of 229 to 230 °C. In the case of `CNC(=O)COc1cnc(-c2cccc(Cn3nc(-c4cnn(C)c4)ccc3=O)c2)nc1` [Compound A27, N-Methyl-2-(2-{3-[3-(1-methyl-1H-pyrazol-4-yl)-6-oxo-6H-pyridazin-1-ylmethyl]phenyl}pyrimidin-5-yloxy)acetamide], the melting point is reported as 242 to 243 °C. Work on `N#Cc1cccc(-c2ccc(=O)n(Cc3cccc(-c4ncc(OCCN5CCNCC5)cn4)c3)n2)c1` [Compound C5, 3-(6-oxo-1-{3-[5-(2-piperazin-1-ylethoxy)pyrimidin-2-yl]benzyl}-1,6-dihydro-pyridazin-3-yl)benzonitrile] yielded a melting point of 149 to 150 °C.

Target: T1, Met kinase (Homo sapiens, UniProt P08581)
T1 construct: 6His (N); purchased Upstate 14-526; host or cells: Sf21 insect cells (S. frugiperda), baculovirus
T1 sequence (P08581 974-1390 limits assumed): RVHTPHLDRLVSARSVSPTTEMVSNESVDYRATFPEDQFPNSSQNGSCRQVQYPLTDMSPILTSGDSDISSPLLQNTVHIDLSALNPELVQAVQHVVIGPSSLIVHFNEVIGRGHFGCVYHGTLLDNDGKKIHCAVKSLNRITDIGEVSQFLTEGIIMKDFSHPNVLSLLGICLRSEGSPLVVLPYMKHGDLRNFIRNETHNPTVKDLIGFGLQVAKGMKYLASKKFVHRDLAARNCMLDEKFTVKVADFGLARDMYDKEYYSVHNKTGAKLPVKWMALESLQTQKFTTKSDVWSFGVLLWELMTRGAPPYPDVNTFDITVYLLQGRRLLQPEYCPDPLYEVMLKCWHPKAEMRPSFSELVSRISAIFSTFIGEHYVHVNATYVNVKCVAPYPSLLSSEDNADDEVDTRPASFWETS
Assay: Met kinase inhibition, enzyme assay (flashplate method)
Format: biochemical
Source text: According to the manufacturer's data (Met, active, upstate, catalogue No. 14-526), Met kinase is expressed for the purposes of protein production in insect cells (Sf21; S. frugiperda) and subsequent affinity-chromatographic purification as “N-terminal 6His-tagged” recombinant human protein in a baculovirus expression vector.
The test plates used are 96-well Flashplate® microtitre plates from Perkin Elmer (Cat. No. SMP200). The components of the kinase reaction described below are pipetted into the assay plate. The Met kinase and the substrate poly Ala-Glu-Lys-Tyr, (pAGLT, 6:2:5:1), are incubated for 3 hrs at room temperature with radioactively labelled ^33P-ATP in the presence and absence of test substances in a total volume of 100 μl. The reaction is terminated using 150 μl of a 60 mM EDTA solution. After incubation for a further 30 min at room temperature, the supernatants are filtered off with suction, and the wells are washed three times with 200 μl of 0.9% NaCl solution each time. The measurement of the bound radioactivity is carried out by means of a scintillation measuring instrument (Topcount NXT, Perkin-Elmer).
The full value used is the inhibitor-free kinase reaction. This should be approximately in the range 6000-9000 cpm. The pharmacological zero value used is staurosporin in a final concentration of […]. The inhibitory values ([…]) are determined using the RS1_MTS program.
Kinase reaction conditions per well:
• 30 μl of assay buffer • 10 μl of substance to be tested in assay buffer with 10% of DMSO • 10 μl of ATP (final concentration 1 μM cold, 0.35 μCi of ^33P-ATP) • 50 μl of Met kinase/substrate mixture in assay buffer; • (10 ng of enzyme/well, 50 ng of pAGLT/well)
Solutions used: • Assay buffer:
50 mM HEPES • 3 mM magnesium chloride • 3 μM sodium orthovanadate • 3 mM manganese(II) chloride • 1 mM dithiothreitol (DTT)
pH=7.5 (to be set using sodium hydroxide) • Stop solution:
60 mM Titriplex III (EDTA) • ^33P-ATP: Perkin-Elmer; • Met kinase: Upstate, Cat. No. 14-526, Stock 1 μg/10 μl; spec. activity 954 U/mg; • Poly-Ala-Glu-Lys-Tyr, 6:2:5:1: Sigma Cat. No. P1152 In-vivo tests
In the case of `CC(C)(C)OC(=O)NCCOc1cnc(-c2cccc(Cn3nc(-c4cccc(C#N)c4)ccc3=O)c2)nc1` [Compound B2, tert-butyl [2-(2-{3-[3-(3-cyanophenyl)-6-oxo-6H-pyridazin-1-ylmethyl]phenyl}-pyrimidin-5-yloxy)ethyl]carbamate], the IC50 is reported as 10 to 1000 nM. With `CC(=O)N[C@H](C(=O)NCCOc1cnc(-c2cccc(Cn3nc(-c4cnn(C)c4)ccc3=O)c2)nc1)C(C)C` [Compound A7, (S)-2-acetylamino-3-methyl-N-[2-(2-{3-[3-(1-methyl-1H-pyrazol-4-yl)-6-oxo-6H-pyridazin-1-ylmethyl]phenyl}pyrimidin-5-yloxy)ethyl]-butyramide] the IC50 was 10 to 1000 nM. Work on `Cn1cc(-c2ccc(=O)n(Cc3cccc(-c4ncc(OCC5CCC(CN)CC5)cn4)c3)n2)cn1` (centres unmarked) [Compound A13a, 2-{3-[5-(4-aminomethylcyclohexylmethoxy)pyrimidin-2-yl]benzyl}-6-(1-methyl-1H-pyrazol-4-yl)-2H-pyridazin-3-one] yielded an IC50 of 10 to 1000 nM. Compound `N#Cc1cccc(-c2ccc(=O)n(Cc3cccc(-c4ncc(O[C@@H]5CN[C@H](C(=O)O)C5)cn4)c3)n2)c1` [Compound A10, (2S,4S)-4-(2-{3-[3-(3-cyanophenyl)-6-oxo-6H-pyridazin-1-yl-methyl]phenyl}pyrimidin-5-yloxy)pyrrolidine-2-carboxylic acid] has an IC50 of 10 to 1000 nM. `Cn1cc(-c2ccc(=O)n(Cc3cccc(-c4ncc(O[C@H]5CCC[C@H]5N)cn4)c3)n2)cn1` [Compound A20, 2-{3-[5-((1S,2R)-2-Aminocyclopentyloxy)pyrimidin-2-yl]benzyl}-6-(1-methyl-1H-pyrazol-4-yl)-2H-pyridazin-3-one] gave an IC50 of 10 to 1000 nM. `N#Cc1cccc(-c2ccc(=O)n(Cc3cccc(-c4ncc(O[C@H]5CCC[C@H]5N)cn4)c3)n2)c1` [Compound A19, 3-(1-{3-[5-((1S,2R)-2-Aminocyclopentyloxy)pyrimidin-2-yl]benzyl}-6-oxo-1,6-dihydropyridazin-3-yl)benzonitrile] showed an IC50 of 10 to 1000 nM. `N#Cc1cccc(-c2ccc(=O)n(Cc3cccc(-c4ncc(OCC5CCN(CC6CC6)CC5)cn4)c3)n2)c1` [Compound A24, 3-(1-{3-[5-(1-cyclopropylmethylpiperidin-4-ylmethoxy)-pyrimidin-2-yl]benzyl}-6-oxo-1,6-dihydropyridazin-3-yl)benzonitrile] gave an IC50 of 10 to 1000 nM. For `Cn1cc(-c2ccc(=O)n(Cc3cccc(-c4ncc(OCCNC(=O)[C@@H]5CCCN5)cn4)c3)n2)cn1` [Compound A3], the IC50 was 10 to 1000 nM. `N#Cc1cccc(-c2ccc(=O)n(Cc3cccc(-c4ncc(OCCNC(=O)[C@@H]5CCCN5)cn4)c3)n2)c1` [Compound A5, N-[2-(2-{3-[3-(3-Cyanophenyl)-6-oxo-6H-pyridazin-1-ylmethyl]phenyl}-pyrimidin-5-yloxy)ethyl]-(S)-pyrrolidine-2-carboxamide] showed an IC50 of 10 to 1000 nM. For `CO[C@@H](C)[C@H](N)C(=O)NCCOc1cnc(-c2cccc(Cn3nc(-c4cnn(C)c4)ccc3=O)c2)nc1` [Compound A1, (2S,3S)-2-amino-3-methoxy-N-[2-(2-{3-[3-(1-methyl-1H-pyrazol-4-yl)-6-oxo-6H-pyridazin-1-ylmethyl]phenyl}pyrimidin-5-yloxy)ethyl]-butyramide], the IC50 was 10 to 1000 nM. Work on `Cn1cc(-c2ccc(=O)n(Cc3cccc(-c4ncc(OCCC[C@H](N)C(=O)O)cn4)c3)n2)cn1` [Compound A11, (S)-2-Amino-5-(2-{3-[3-(1-methyl-1H-pyrazol-4-yl)-6-oxo-6H-pyridazin-1-yl-methyl]phenyl}pyrimidin-5-yloxy)pentanoic acid] yielded an IC50 of 10 to 1000 nM. For `CN(C)CC1CCC(COc2cnc(-c3cccc(Cn4nc(-c5cnn(C)c5)ccc4=O)c3)nc2)CC1` (centres unmarked) [Compound A13, 2-{3-[5-(4-dimethylaminomethylcyclohexylmethoxy)pyrimidin-2-yl]benzyl}-6-(1-methyl-1H-pyrazol-4-yl)-2H-pyridazin-3-one], the IC50 was 10 to 1000 nM. `N#Cc1cccc(-c2ccc(=O)n(Cc3cccc(-c4ncc(OCC5CCC(CN)CC5)cn4)c3)n2)c1` (centres unmarked) [Compound A13b, 3-(1-{3-[5-(4-Aminomethylcyclohexylmethoxy)pyrimidin-2-yl]benzyl}-6-oxo-1,6-dihydropyridazin-3-yl)benzonitrile] gave an IC50 of 10 to 1000 nM. In the case of `N#Cc1cccc(-c2ccc(=O)n(Cc3cccc(-c4ncc(OC5CCC(O)C5)cn4)c3)n2)c1` (centres unmarked) [Compound A23, 3-(1-{3-[5-(3-Hydroxycyclopentyloxy)pyrimidin-2-yl]benzyl}-6-oxo-1,6-dihydro-pyridazin-3-yl)benzonitrile], the IC50 is reported as 10 to 1000 nM. `N#Cc1cccc(-c2ccc(=O)n(Cc3cccc(-c4ncc(OCCNC(=O)[C@@H]5C[C@@H](O)CN5)cn4)c3)n2)c1` [Compound A4, N-[2-(2-{3-[3-(3-Cyanophenyl)-6-oxo-6H-pyridazin-1-ylmethyl]phenyl}-pyrimidin-5-yloxy)ethyl]-(2S,4R)-4-hydroxypyrrolidine-2-carboxamide] gave an IC50 of 10 to 1000 nM. Compound `CO[C@@H](C)[C@H](N)C(=O)NCCOc1cnc(-c2cccc(Cn3nc(-c4cccc(C#N)c4)ccc3=O)c2)nc1` [Compound A6, (2S,3S)-2-Amino-N-[2-(2-{3-[3-(3-cyanophenyl)-6-oxo-6H-pyridazin-1-yl-methyl]phenyl}pyrimidin-5-yloxy)ethyl]-3-methoxybutyramide] has an IC50 of 10 to 1000 nM. Work on `N#Cc1cccc(-c2ccc(=O)n(Cc3cccc(-c4ncc(OCC5(CN)CC5)cn4)c3)n2)c1` [Compound A15, 3-(1-{3-[5-(1-Aminomethylcyclopropylmethoxy)pyrimidin-2-yl]benzyl}-6-oxo-1,6-dihydropyridazin-3-yl)benzonitrile] yielded an IC50 of 10 to 1000 nM. Compound `Cn1cc(-c2ccc(=O)n(Cc3cccc(-c4ncc(OCC5(CN)CC5)cn4)c3)n2)cn1` [Compound A14, 2-{3-[5-(1-Aminomethylcyclopropylmethoxy)pyrimidin-2-yl]benzyl}-6-(1-methyl-1H-pyrazol-4-yl)-2H-pyridazin-3-one] has an IC50 of 10 to 1000 nM. `CC(=O)N[C@H](C(=O)NCCOc1cnc(-c2cccc(Cn3nc(-c4cccc(C#N)c4)ccc3=O)c2)nc1)C(C)C` [Compound A8, (S)-2-acetylamino-N-[2-(2-{3-[3-(3-cyanophenyl)-6-oxo-6H-pyridazin-1-yl-methyl]phenyl}pyrimidin-5-yloxy)ethyl]-3-methylbutyramide] gave an IC50 of 10 to 1000 nM. `Cn1cc(-c2ccc(=O)n(Cc3cccc(-c4ncc(OCCNC(=O)[C@@H]5C[C@@H](O)CN5)cn4)c3)n2)cn1` [Compound A2, N-[2-(2-{3-[3-(1-Methyl-1H-pyrazol-4-yl)-6-oxo-6H-pyridazin-1-ylmethyl]-phenyl}pyrimidin-5-yloxy)ethyl]-(2S,4R)-4-hydroxypyrrolidine-2-carboxamide] gave an IC50 of 10 to 1000 nM. `N#Cc1cccc(-c2ccc(=O)n(Cc3cccc(-c4ncc(OCC5CC5CN)cn4)c3)n2)c1` (centres unmarked) [Compound A13c, 3-(1-{3-[5-(2-Aminomethylcyclopropylmethoxy)pyrimidin-2-yl]benzyl}-6-oxo-1,6-dihydropyridazin-3-yl)benzonitrile] gave an IC50 of 10 to 1000 nM. For `CN(C)C[C@H]1C[C@@H]1COc1cnc(-c2cccc(Cn3nc(-c4cccc(C#N)c4)ccc3=O)c2)nc1` [Compound A17, 3-(1-{3-[5-((1S,2S)-2-Dimethylaminomethylcyclopropylmethoxy)pyrimidin-2-yl]benzyl}-6-oxo-1,6-dihydropyridazin-3-yl)benzonitrile], the IC50 was 10 to 1000 nM.
